ChEMBL document CHEMBL2069196, “Synthesis and evaluation of novel 4-[(3H,3aH,6aH)-3-phenyl)-4,6-dioxo-2-phenyldihydro-2H-pyrrolo[3,4-d]isoxazol-5(3H,6H,6aH)-yl]benzoic acid derivatives as potent acetylcholinesterase inhibitors and anti-amnestic agents” (Bioorg Med Chem, 2012)
Calls of active or inactive are those of the source. No cut-off for these calls is given here.

Tests used:
Acetylcholinesterase = biological target: T1, Acetylcholinesterase (Rattus norvegicus, UniProt P37136); assay: Inhibition of AChE activity in rat brain homogenate using acetylthiocholine as substrate by Ellman's method; type: tissue-based
T1 sequence (P37136 whole entry): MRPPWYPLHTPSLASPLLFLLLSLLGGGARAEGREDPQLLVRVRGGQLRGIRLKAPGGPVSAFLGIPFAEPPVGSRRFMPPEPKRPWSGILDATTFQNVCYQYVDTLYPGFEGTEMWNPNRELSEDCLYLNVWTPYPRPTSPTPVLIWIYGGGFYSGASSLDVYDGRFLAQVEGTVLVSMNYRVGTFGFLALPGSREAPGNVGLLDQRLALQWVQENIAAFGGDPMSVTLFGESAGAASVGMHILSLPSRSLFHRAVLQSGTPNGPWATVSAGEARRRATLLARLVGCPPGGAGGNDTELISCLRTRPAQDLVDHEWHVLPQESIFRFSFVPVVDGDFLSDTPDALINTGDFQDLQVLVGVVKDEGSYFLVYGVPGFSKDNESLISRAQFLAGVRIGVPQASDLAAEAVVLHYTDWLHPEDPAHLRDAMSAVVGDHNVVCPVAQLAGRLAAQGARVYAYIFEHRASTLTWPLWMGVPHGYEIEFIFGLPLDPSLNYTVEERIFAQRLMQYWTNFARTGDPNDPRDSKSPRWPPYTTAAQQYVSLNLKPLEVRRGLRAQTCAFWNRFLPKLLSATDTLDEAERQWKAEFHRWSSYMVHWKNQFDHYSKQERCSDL

Mus musculus [1] = assay: Antiamnesic activity in scopolamine-induced amnesia mouse model assessed as increase in time spent in target quadrant at 5 mg/kg, ip measured on day 5 by Morris water maze test; type: functional, organism-based; design: dose 5 mg/kg
Mus musculus [2] = assay: Antiamnesic activity in mouse assessed as inhibition of scopolamine-induced escape latency time at 5 mg/kg, ip measured on day 1 by Morris water maze test (reference value: 89.7 +/- 3.8 secs); type: functional; settings: route intraperitoneal
Mus musculus [3] = assay: Antiamnesic activity in mouse assessed as inhibition of scopolamine-induced escape latency time at 5 mg/kg, ip measured on day 4 by Morris water maze test (reference value: 78.7 +/- 5.7 secs); type: functional; settings: route intraperitoneal
Mus musculus [4] = assay: Antiamnesic activity in mouse assessed as inhibition of scopolamine-induced escape latency time at 2 mg/kg, ip measured on day 4 by Morris water maze test (reference value: 78.7 +/- 5.7 secs); type: functional; settings: route intraperitoneal
Butyrylcholinesterase = Butyrylcholinesterase (Rattus norvegicus, UniProt Q9JKC1); assay: Inhibition of BuChE activity in rat plasma using […] as substrate by Ellman's method; type: cell-free
Butyrylcholinesterase, sequence (Q9JKC1 whole entry): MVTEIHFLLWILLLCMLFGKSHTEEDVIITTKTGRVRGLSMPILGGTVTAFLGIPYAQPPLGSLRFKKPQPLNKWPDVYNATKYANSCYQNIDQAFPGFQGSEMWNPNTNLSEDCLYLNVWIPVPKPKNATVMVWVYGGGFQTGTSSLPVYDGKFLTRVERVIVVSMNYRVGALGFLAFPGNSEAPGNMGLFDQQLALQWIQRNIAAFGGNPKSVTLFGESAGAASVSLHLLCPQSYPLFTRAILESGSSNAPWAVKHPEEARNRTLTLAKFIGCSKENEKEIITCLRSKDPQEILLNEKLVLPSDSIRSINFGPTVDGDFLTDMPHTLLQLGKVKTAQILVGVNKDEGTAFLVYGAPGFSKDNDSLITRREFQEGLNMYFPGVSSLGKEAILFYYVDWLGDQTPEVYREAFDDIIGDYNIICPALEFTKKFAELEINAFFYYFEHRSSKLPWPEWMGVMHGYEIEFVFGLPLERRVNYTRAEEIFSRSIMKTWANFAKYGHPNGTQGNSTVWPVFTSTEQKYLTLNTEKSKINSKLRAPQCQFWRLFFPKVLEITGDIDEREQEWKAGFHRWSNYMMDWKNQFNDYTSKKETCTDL

Mus musculus [5] = assay: Antiamnesic activity in mouse assessed as inhibition of scopolamine-induced escape latency time at 10 mg/kg, ip measured on day 1 by Morris water maze test (reference value: 89.7 +/- 3.8 secs); type: functional; settings: route intraperitoneal
Mus musculus [6] = assay: Antiamnesic activity in scopolamine-induced amnesia mouse model assessed as increase in time spent in target quadrant at 10 mg/kg, ip measured on day 5 by Morris water maze test; type: functional, organism-based; design: dose 10 mg/kg
Mus musculus [7] = assay: Antiamnesic activity in mouse assessed as inhibition of scopolamine-induced escape latency time at 10 mg/kg, ip measured on day 4 by Morris water maze test (reference value: 78.7 +/- 5.7 secs); type: functional; settings: route intraperitoneal
Mus musculus [8] = assay: Antiamnesic activity in mouse assessed as inhibition of scopolamine-induced escape latency time at 2 mg/kg, ip measured on day 1 by Morris water maze test (reference value: 89.7 +/- 3.8 secs); type: functional; settings: route intraperitoneal
Mus musculus [9] = assay: Antiamnesic activity in scopolamine-induced amnesia mouse model assessed as increase in time spent in target quadrant at 25 mg/kg, ip measured on day 5 by Morris water maze test; type: functional, organism-based; design: dose 25 mg/kg

| Structure (SMILES) | IC50 (Acetylcholinesterase) [µM] | other results |
| --- | --- | --- |
| O=C(O)c1ccc(N2C(=O)[C@H]3[C@H](ON(c4ccccc4)[C@H]3c3cccc(Cl)c3)C2=O)cc1 (relative stereo) | 0.0201 | – |
| COc1ccc([C@H]2[C@H]3C(=O)N(c4ccc(C(=O)O)cc4)C(=O)[C@H]3ON2c2ccc(C)cc2)cc1 (relative stereo) | 0.0175 | Activity (Mus musculus [1]): Active; Time (Mus musculus [2]): 85.2 s; Time (Mus musculus [3]): 69.5 s; Time (Mus musculus [4]): 74.8 s; IC50 (Butyrylcholinesterase): 15.3 µM; Time (Mus musculus [5]): 81.2 s; Activity (Mus musculus [6]): Active; Time (Mus musculus [7]): 49.1 s; Time (Mus musculus [8]): 83.7 s |
| O=C(O)c1ccc(N2C(=O)[C@@H]3[C@@H](ON(c4ccccc4)[C@H]3c3ccccc3[N+](=O)[O-])C2=O)cc1 (relative stereo) | 0.0269 | – |
| COc1ccccc1[C@H]1[C@@H]2C(=O)N(c3ccc(C(=O)O)cc3)C(=O)[C@@H]2ON1c1ccccc1 (relative stereo) | 0.0206 | – |
| O=C(O)c1ccc(N2C(=O)[C@@H]3[C@@H](ON(c4ccccc4)[C@H]3c3ccccc3Cl)C2=O)cc1 (relative stereo) | 0.0224 | – |
| O=C(O)c1ccc(N2C(=O)[C@H]3[C@H](ON(c4ccccc4)[C@H]3c3ccccc3[N+](=O)[O-])C2=O)cc1 (relative stereo) | 0.0261 | – |
| Cc1ccc(N2O[C@H]3C(=O)N(c4ccc(C(=O)O)cc4)C(=O)[C@H]3[C@@H]2c2cccc(Cl)c2)cc1 (relative stereo) | 0.0238 | – |
| O=C(O)c1ccc(N2C(=O)[C@H]3[C@H](ON(c4ccccc4)[C@H]3c3ccccc3)C2=O)cc1 (relative stereo) | 0.0239 | – |
| O=C(O)c1ccc(N2C(=O)[C@H]3[C@H](ON(c4ccccc4)[C@H]3c3ccccc3O)C2=O)cc1 (relative stereo) | 0.0239 | – |
| Cc1ccc(N2O[C@@H]3C(=O)N(c4ccc(C(=O)O)cc4)C(=O)[C@@H]3[C@@H]2c2ccccc2Cl)cc1 (relative stereo) | 0.0213 | – |
| Cc1ccc(N2O[C@@H]3C(=O)N(c4ccc(C(=O)O)cc4)C(=O)[C@@H]3[C@@H]2c2ccc([N+](=O)[O-])cc2)cc1 (relative stereo) | 0.0234 | – |
| COc1cccc([C@H]2[C@@H]3C(=O)N(c4ccc(C(=O)O)cc4)C(=O)[C@@H]3ON2c2ccccc2)c1 (relative stereo) | 0.0205 | – |
| COc1ccccc1[C@H]1[C@H]2C(=O)N(c3ccc(C(=O)O)cc3)C(=O)[C@H]2ON1c1ccc(C)cc1 (relative stereo) | 0.0191 | – |
| O=C(O)c1ccc(N2C(=O)[C@H]3[C@H](ON(c4ccccc4)[C@H]3c3ccccc3Cl)C2=O)cc1 (relative stereo) | 0.0218 | – |
| COc1cccc([C@H]2[C@@H]3C(=O)N(c4ccc(C(=O)O)cc4)C(=O)[C@@H]3ON2c2ccc(C)cc2)c1 (relative stereo) | 0.0199 | – |
| COc1ccc([C@H]2[C@@H]3C(=O)N(c4ccc(C(=O)O)cc4)C(=O)[C@@H]3ON2c2ccccc2)cc1 | 0.0191 | – |
| Cc1ccc(N2O[C@H]3C(=O)N(c4ccc(C(=O)O)cc4)C(=O)[C@H]3[C@@H]2c2ccc(Cl)cc2)cc1 | 0.0204 | – |
| Cc1ccc(N2O[C@@H]3C(=O)N(c4ccc(C(=O)O)cc4)C(=O)[C@@H]3[C@@H]2c2ccc(Cl)cc2)cc1 (relative stereo) | 0.0192 | – |
| Cc1ccc(N2O[C@@H]3C(=O)N(c4ccc(C(=O)O)cc4)C(=O)[C@@H]3[C@@H]2c2cccc(Cl)c2)cc1 (relative stereo) | 0.0222 | – |
| O=C(O)c1ccc(N2C(=O)[C@@H]3[C@@H](ON(c4ccccc4)[C@H]3c3ccc(Cl)cc3)C2=O)cc1 (relative stereo) | 0.0209 | – |
| COc1ccccc1[C@H]1[C@H]2C(=O)N(c3ccc(C(=O)O)cc3)C(=O)[C@H]2ON1c1ccccc1 (relative stereo) | 0.0192 | – |
| O=C(O)c1ccc(N2C(=O)[C@@H]3[C@@H](ON(c4ccccc4)[C@H]3c3ccccc3O)C2=O)cc1 (relative stereo) | 0.0248 | – |
| Cc1ccc(N2O[C@H]3C(=O)N(c4ccc(C(=O)O)cc4)C(=O)[C@H]3[C@@H]2c2ccccc2O)cc1 (relative stereo) | 0.0241 | – |

| Structure (SMILES) | IC50 (Acetylcholinesterase) [µM] | other results |
| --- | --- | --- |
| COc1cccc([C@H]2[C@H]3C(=O)N(c4ccc(C(=O)O)cc4)C(=O)[C@H]3ON2c2ccc(C)cc2)c1 (relative stereo) | 0.0188 | – |
| Cc1ccc(N2O[C@H]3C(=O)N(c4ccc(C(=O)O)cc4)C(=O)[C@H]3[C@@H]2c2ccccc2[N+](=O)[O-])cc1 (relative stereo) | 0.0252 | – |
| Cc1ccc(N2O[C@@H]3C(=O)N(c4ccc(C(=O)O)cc4)C(=O)[C@@H]3[C@@H]2c2ccccc2)cc1 (relative stereo) | 0.0228 | – |
| O=C(O)c1ccc(N2C(=O)[C@H]3[C@H](ON(c4ccccc4)[C@H]3c3ccc([N+](=O)[O-])cc3)C2=O)cc1 (relative stereo) | 0.0258 | – |
| O=C(O)c1ccc(N2C(=O)[C@@H]3[C@@H](ON(c4ccccc4)[C@H]3c3cccc(Cl)c3)C2=O)cc1 (relative stereo) | 0.0218 | – |
| O=C(O)c1ccc(N2C(=O)[C@@H]3[C@@H](ON(c4ccccc4)[C@H]3c3ccc(O)cc3)C2=O)cc1 (relative stereo) | 0.0227 | – |
| COc1ccc([C@H]2[C@H]3C(=O)N(c4ccc(C(=O)O)cc4)C(=O)[C@H]3ON2c2ccccc2)cc1 (relative stereo) | 0.0188 | – |
| Cc1ccc(N2O[C@H]3C(=O)N(c4ccc(C(=O)O)cc4)C(=O)[C@H]3[C@@H]2c2ccccc2Cl)cc1 (relative stereo) | 0.0221 | – |
| Cc1ccc(N2O[C@H]3C(=O)N(c4ccc(C(=O)O)cc4)C(=O)[C@H]3[C@@H]2c2ccccc2)cc1 (relative stereo) | 0.0224 | – |
| O=C(O)c1ccc(N2C(=O)[C@H]3[C@H](ON(c4ccccc4)[C@H]3c3ccc(Cl)cc3)C2=O)cc1 (relative stereo) | 0.0197 | – |
| O=C(O)c1ccc(N2C(=O)[C@@H]3[C@@H](ON(c4ccccc4)[C@H]3c3ccccc3)C2=O)cc1 (relative stereo) | 0.0244 | – |
| COc1cccc([C@H]2[C@H]3C(=O)N(c4ccc(C(=O)O)cc4)C(=O)[C@H]3ON2c2ccccc2)c1 (relative stereo) | 0.0191 | – |
| O=C(O)c1ccc(N2C(=O)[C@H]3[C@H](ON(c4ccccc4)[C@H]3c3ccc(O)cc3)C2=O)cc1 (relative stereo) | 0.0225 | – |
| COc1ccccc1[C@H]1[C@@H]2C(=O)N(c3ccc(C(=O)O)cc3)C(=O)[C@@H]2ON1c1ccc(C)cc1 (relative stereo) | 0.0202 | – |
| COc1ccc([C@H]2[C@@H]3C(=O)N(c4ccc(C(=O)O)cc4)C(=O)[C@@H]3ON2c2ccc(C)cc2)cc1 (relative stereo) | 0.018 | – |
| COc1cc2c(cc1OC)C(=O)C(CC1CCN(Cc3ccccc3)CC1)C2 (centres undefined) | – | Activity (Mus musculus [9]): Active |
| Cc1ccc(N2O[C@@H]3C(=O)N(c4ccc(C(=O)O)cc4)C(=O)[C@@H]3[C@@H]2c2ccc(O)cc2)cc1 (relative stereo) | 0.0219 | – |
| Cc1ccc(N2O[C@H]3C(=O)N(c4ccc(C(=O)O)cc4)C(=O)[C@H]3[C@@H]2c2ccc(O)cc2)cc1 (relative stereo) | 0.0225 | – |
| Cc1ccc(N2O[C@@H]3C(=O)N(c4ccc(C(=O)O)cc4)C(=O)[C@@H]3[C@@H]2c2ccccc2[N+](=O)[O-])cc1 (relative stereo) | 0.0243 | – |
| Cc1ccc(N2O[C@@H]3C(=O)N(c4ccc(C(=O)O)cc4)C(=O)[C@@H]3[C@@H]2c2ccccc2O)cc1 | 0.0232 | – |
| Cc1ccc(N2O[C@H]3C(=O)N(c4ccc(C(=O)O)cc4)C(=O)[C@H]3[C@@H]2c2ccc([N+](=O)[O-])cc2)cc1 | 0.0241 | – |
| O=C(O)c1ccc(N2C(=O)[C@@H]3[C@@H](ON(c4ccccc4)[C@H]3c3ccc([N+](=O)[O-])cc3)C2=O)cc1 (relative stereo) | 0.0264 | – |
